# According to patent US7964634B2, “Therapeutic compounds” (Allergan, Inc., priority 2008, dated 2011):
# Test system: lashes and adjacent hairs of the eyelids
# Assay: Observation of eyelash and hair growth in glaucoma patients treated in one eye
# Assay type: in vivo
# From the text: In the course of treating patients having glaucoma, treatment may only be appropriate in one eye. […] The lash appearance on the lids of the treated eyes would have appeared quite attractive if it represented a bilateral phenomenon. As a result of its asymmetric nature, the long lashes on one side could be construed as disturbing from a cosmetic standpoint. A systemic examination was preformed as a result of the asymmetric phenomenon. It soon became apparent that this altered appearance was not an isolated finding.
# The changes in the lashes were apparent on gross inspection in several patients once attention was focused on the issue. In those with light colored hair and lashes, the differences were only seen easily with the aid of the high magnification and lighting capabilities of the slit lamp biomicroscope. In the course of glaucoma follow-up examination, attention is generally immediately focused on the eye itself. As a result of the high power magnification needed only one eye is seen at a time and the eye is seen at a high enough power that the lashes are not in focus. At these higher powers, any lash asymmetry between the two eyes is not likely to be noticed except by careful systematic comparison of the lashes and adjacent hairs of the eyelids of the two eyes. […]
smiles,measurement,setting,value
CCNC(=O)CCC/C=C\C[C@@H]1[C@@H](/C=C/[C@@H](O)CCc2ccccc2)[C@H](O)C[C@@H]1O [bimatoprost],differences in lashes and adjacent hairs of the treated side,all patients taking the drug on a unilateral basis for longer than 6 months,Definite differences could be identified to varying degrees
same,lash appearance in treated eye versus non-treated eye,glaucoma patient treated in one eye only,"longer, thicker, and fuller in the treated eye than in the non-treated eye"
